The source made the active and inactive calls. The rule behind the calls is not given here.
target: glucose-6-phosphate dehydrogenase-6-phosphogluconolactonase (Plasmodium falciparum 3D7); test: PfG6PD inhibitor potency, dose response, biochemical, fluorescence intensity (AID 504765); conditions: Recombinant PfG6PD enzyme, fluorescence intensity (NADPH)

SMILES	IC50
C[C@]12CC[C@@H]3c4ccc(O)c(O)c4CC[C@H]3[C@@H]1CC[C@@H]2O	4.02 µM
COc1ccc(OC)c2c1C(=O)C(Cl)=C(Cl)C2=O	4.64 µM
COc1cc(OC)c(C2CC(=O)N3CN(c4ccccc4)CSC3=C2C#N)cc1OC (stereo not drawn)	11.5 µM
O=S(=O)(Nc1cccc2cccnc12)c1ccccc1	7.08 µM
O=C(O)c1ccccc1NS(=O)(=O)c1cccc(-n2sc3ccccc3c2=O)c1	5.54 µM
O=C(NC1=CC(=O)c2ccccc2C1=O)c1ccccc1	2.53 µM
CC(C)Nc1ccc(Nc2ccccc2)cc1	12.1 µM
COC1(OC)C=CC(=O)C=C1NC(=O)c1ccccc1OC(C)=O	9.27 µM
O=c1c2ccccc2sn1-c1ccc(S(=O)(=O)N2CCCC2)cc1	6.88 µM
CC(C)(C)c1ccc(O)c(O)c1	inactive
COc1cc(N(C)C)ccc1C=c1c2ccccc2n2c1cc(-c1ccccc1)[n+]2C	9.08 µM
CC(C)c1cc2c(c(O)c1O)[C@@]13CCCC(C)(C)C1CC2OC3=O (stereo partly drawn)	4.95 µM
CCc1ccc(OCC(=O)N/N=C/c2cc([N+](=O)[O-])ccc2N2CCOCC2)cc1	8.3 µM
O=C(CNc1ccc2c(c1)OCO2)N/N=C\c1cn(Cc2ccccc2)c2ccccc12	inactive
COc1ccc(CCn2c(NN=C(C)C)nc3c2c(=O)[nH]c(=O)n3C)cc1	4.82 µM
CCNc1nc(NC(C)C)nc(NS(=O)(=O)c2ccc(Cl)cc2)n1	6.54 µM
O=C(CNC(=O)c1ccc(Br)cc1)NCC(=O)OCC(=O)c1ccc([N+](=O)[O-])cc1	18.1 µM
N#Cc1ccc2c(=O)n(-c3ccccc3)sc2c1	3.86 µM
C[n+]1c(-c2ccccc2)cc2c(=Cc3ccc([N+](=O)[O-])cc3)c3ccccc3n21	inactive
O=C(CCc1ccc(O)c(O)c1)N/N=C/c1cc2c(cc1[N+](=O)[O-])OCO2	14 µM

SMILES	IC50
Cc1ccc(S(=O)(=O)SCCCSS(=O)(=O)c2ccc(C)cc2)cc1	4.64 µM
COc1cccc(C2(c3cccc(OC)c3)CC2C(=O)Nc2ccc(F)cc2)c1 (stereo not drawn)	10.3 µM
O=C(COC(=O)c1cnccn1)c1ccc([N+](=O)[O-])cc1	12.2 µM
CCC(C)(C)c1nnc(NC(=O)C2CCN(C(=O)c3ccco3)CC2)s1	inactive
COc1ccc2ccccc2c1C1CC(=O)N2CN(C3CCCCC3)CSC2=C1C#N (stereo not drawn)	14.7 µM
Cc1ccc(-n2c(N)c(C(=O)N3CCN(C)CC3)sc2=S)cc1	16 µM
O=[N+]([O-])c1ccc2c(c1)-c1ccccc1C2O (stereo not drawn)	2.46 µM
COCc1cc(=O)n2[nH]c(C(C)(C)C)cc2n1	14.1 µM
COC(=O)CCC(=O)OC1(C)C(=O)C2=CN(C3CC3)C(c3ccc(OC)cc3)=CC2=C(Br)C1=O (stereo not drawn)	2.46 µM
COc1cc(NC(C)CCc2ccccc2)cc(OC)c1OC (stereo not drawn)	2.02 µM
C=CCN1C=C2C(=O)C(C)(OC(=O)CCC(=O)OC)C(=O)C(Br)=C2C=C1c1ccc(OC)cc1 (stereo not drawn)	2.79 µM
Cc1cc(C)c2c(=O)n(CC(=O)Nc3cccc(Cl)c3C)sc2n1	5.51 µM
C[C@H](NC(=O)c1cc2c(cn1)[nH]c1ccccc12)C(=O)O	inactive
Cc1ccc(S(=O)(=O)Oc2cccc(/C=N/Nc3ccc(C(=O)O)cc3)c2)cc1	7.01 µM
O=C(Nc1nc(-c2ccncc2)cs1)C1COc2ccccc2O1 (stereo not drawn)	inactive
CC1CCc2[nH]c3ccc(C(=O)N(C)CC(=O)Nc4ccccc4C(F)(F)F)cc3c2C1 (stereo not drawn)	5.61 µM
Cc1cc(C)c2c(=O)n(CC(=O)NC3CCCC3)sc2n1	1.97 µM
CC1(C)Cc2c(sc3nc4n(-c5ccccc5)c(=O)c(CCC(=O)O)nn4c(=O)c23)CO1	4.1 µM
CC1(C)Nc2ccc(O)cc2-c2c1ssc2=S	inactive
Oc1ccc(-c2cn3c(n2)SCC3)cc1O	11.5 µM

SMILES	IC50
CC(C)Sc1nnc(NC(=O)c2ccc3c(c2)OCO3)s1	4.21 µM
O=C1CCC[C@@H]2[C@@H](Cc3ccccc3)[C@H](N3CCN(c4ccccc4)CC3)C[C@@H]3CCN1[C@@H]32	9.43 µM
CCN(CC)c1ccc(NC(=O)c2ccccc2Br)cc1S(=O)(=O)Nc1ccccc1OC	inactive
Cc1[nH]c2ccccc2c1/C=N/NC(=O)c1cccc(S(=O)(=O)Nc2ccccc2Cl)c1	8.71 µM
Cc1ccc(NC(=O)c2cc(N3C(=O)C=CC3=O)ccc2Cl)cc1C	14.1 µM
Cc1ccccc1-n1sc2cc(F)ccc2c1=O	2.15 µM
Cn1c(=O)c2c([nH]c(=S)n2CCCc2ccccc2)n(C)c1=O	19.5 µM
CC(=O)c1cccc(NC(=O)c2cnn(-c3ccccc3)c2C)c1	8.46 µM
COc1ccc(NC2CCCN(Cc3cccc4cnccc34)C2)cc1OC (stereo not drawn)	inactive
CCc1ccc(S(=O)(=O)Nc2cc(SCC(=O)O)c(O)c3ccccc23)cc1	5.63 µM
O=C1C=CC(=O)N1c1ccc(N2CCCCC2)cc1	15.6 µM
Cc1cc(C)c2c(=O)n(CC(=O)N3CCC(N4CCCCC4)CC3)sc2n1	3.88 µM
CCOc1ccc(Cl)cc1/C=N/NC(N)=O	12.4 µM
COc1cc(-c2nnc3n2N=C(c2ccccc2)CS3)cc(OC)c1OC	3.88 µM
CCOC(=O)c1c(OCC)[nH]c2c1cc(O)c1ccccc12	inactive
CN=c1scc(C)n1/N=C/c1ccc(O)c(O)c1O	3.98 µM
Cc1cc(C)c2c(=O)n(CC(=O)Nc3ccc(Cl)cc3)sc2n1	2.51 µM
CN1CCc2cc(O)cc3c2[C@H]1Cc1ccc(O)c(O)c1-3	15 µM

Reference: PubChem BioAssay AID504765 (Sanford-Burnham Center for Chemical Genomics, 2011)
